According to ChEMBL document CHEMBL5244273, “Tuberculosis: An Overview of the Immunogenic Response, Disease Progression, and Medicinal Chemistry Efforts in the Last Decade toward the Development of Potential Drugs for Extensively Drug-Resistant Tuberculosis Strains” (J Med Chem, 2021):
Converted amounts (≈) assume the structure as drawn.

How the values were obtained:
[1] = test system: Mycobacterium tuberculosis; assay: Potentiation of ethionamide induced antibacterial activity against Mycobacterium tuberculosis W4-E1 harboring EthA Gly343Ala mutant expressing GFP incubated for 5 days by fluorescence based analysis; assay type: functional, organism-based
[2] = test system: Mycobacterium tuberculosis; assay: Antimycobacterial activity against rifampicin resistant Mycobacterium tuberculosis by broth dilution method; assay type: functional
[3] = test system: Mycobacterium tuberculosis; assay: Antimycobacterial activity against isoniazid, rifampicin, amikacin and moxifloxacin resistant Mycobacterium tuberculosis by broth dilution method; assay type: functional
[4] = test system: Mycobacterium tuberculosis; assay: Antimycobacterial activity against isoniazid and rifampicin resistant Mycobacterium tuberculosis by broth dilution method; assay type: functional
[5] = test system: Mycobacterium tuberculosis; assay: Antimycobacterial activity against extensively drug resistant Mycobacterium tuberculosis H37Rv; assay type: functional
[6] = test system: Mycobacterium tuberculosis; assay: Antimycobacterial activity against multidrug resistant Mycobacterium tuberculosis H37Rv; assay type: functional

O=C(CCC(F)(F)F)N1CCC(F)(c2cccnc2)CC1 was tested, and the EC50 [1] was < 1300 nM.
Molecule Cc1ccccc1OCc1cn(C[C@@]2(C)Cn3cc([N+](=O)[O-])nc3O2)nn1 has an MIC [2] of 1 µg/mL (≈ 2.7 µM), an MIC [3] of 1 µg/mL (≈ 2.7 µM) and an MIC [4] of 1 µg/mL (≈ 2.7 µM).
In the case of O=C(CCC(F)(F)F)N1CCC(F)(c2ccnc(C(F)(F)F)c2)CC1, the EC50 [1] is reported as < 1300 nM.
For O=C(CCC(F)(F)F)N1CCC2(CC1)CC(F)=NO2, the EC50 [1] was < 140 nM.
With O=C(CCC(F)(F)F)N1CCC(c2cccc(C(F)(F)F)n2)CC1 the EC50 [1] was < 1300 nM.
For O=C(CCC(F)(F)F)N1CCC(c2cncc(C(F)(F)F)n2)CC1, the EC50 [1] was < 1300 nM.
For O=C(CCC(F)(F)F)N1CCC(c2cncc(F)c2)CC1, the EC50 [1] was < 1300 nM.
C[C@]1(Cn2cc(COc3ccccc3F)nn2)Cn2cc([N+](=O)[O-])nc2O1 was tested, and the MIC [2] was 1 µg/mL (≈ 2.67 µM), the MIC [3] was 1 µg/mL (≈ 2.67 µM) and the MIC [4] was 0.5 µg/mL (≈ 1.34 µM).
Work on C[C@]1(Cn2cc(COc3ccc(Br)cc3)nn2)Cn2cc([N+](=O)[O-])nc2O1 yielded an MIC [2] of 0.12 µg/mL (≈ 0.276 µM), an MIC [3] of 0.25 µg/mL (≈ 0.574 µM) and an MIC [4] of 0.12 µg/mL (≈ 0.276 µM).
O=C(CCC(F)(F)F)N1CCC(c2cncc(C(F)(F)F)c2)CC1 was tested, and the EC50 [1] was < 1300 nM.
O=C(CCC(F)(F)F)N1CCC(F)(c2ccc(F)nc2)CC1 was tested, and the EC50 [1] was < 1300 nM.
C[C@]1(Cn2cc(COc3cccc(Cl)c3)nn2)Cn2cc([N+](=O)[O-])nc2O1 showed an MIC [2] of 2 µg/mL (≈ 5.12 µM), an MIC [3] of 4 µg/mL (≈ 10.2 µM) and an MIC [4] of 2 µg/mL (≈ 5.12 µM).
In the case of O=C(CCC(F)(F)F)N1CCC(c2ccncc2F)CC1, the EC50 [1] is reported as < 1300 nM.
For O=C(CCC(F)(F)F)N1CCC(c2ccc(F)nc2F)CC1, the EC50 [1] was < 1300 nM.
In the case of C[C@]1(Cn2cc(-c3ccc(Oc4ccccc4)cc3)nn2)Cn2cc([N+](=O)[O-])nc2O1, the MIC [2] is reported as 1 µg/mL (≈ 2.39 µM), the MIC [3] is reported as 1 µg/mL (≈ 2.39 µM) and the MIC [4] is reported as 1 µg/mL (≈ 2.39 µM).
Work on CC(C)c1ccc(OCc2cn(C[C@@]3(C)Cn4cc([N+](=O)[O-])nc4O3)nn2)cc1 yielded an MIC [2] of 2 µg/mL (≈ 5.02 µM), an MIC [3] of 4 µg/mL (≈ 10 µM) and an MIC [4] of 1 µg/mL (≈ 2.51 µM).
For O=C(CCC(F)(F)F)N1CCC(c2ccc(F)cn2)CC1, the EC50 [1] was < 1300 nM.
With COc1ccc(C2CCN(C(=O)CCC(F)(F)F)CC2)cn1 the EC50 [1] was < 1300 nM.
For C[C@]1(Cn2cc(COc3ccc(OC(F)(F)F)cc3)nn2)Cn2cc([N+](=O)[O-])nc2O1, the MIC [2] was 2 µg/mL (≈ 4.54 µM), the MIC [3] was 2 µg/mL (≈ 4.54 µM) and the MIC [4] was 2 µg/mL (≈ 4.54 µM).
In the case of C[C@]1(Cn2cc(COc3ccc(C(F)(F)F)cc3)nn2)Cn2cc([N+](=O)[O-])nc2O1, the MIC [2] is reported as 4 µg/mL (≈ 9.43 µM), the MIC [3] is reported as 4 µg/mL (≈ 9.43 µM) and the MIC [4] is reported as 4 µg/mL (≈ 9.43 µM).
In the case of O=C(CCC(F)(F)F)N1CCC(c2cc(C(F)(F)F)ccn2)CC1, the EC50 [1] is reported as < 1300 nM.
O=C(CCC(F)(F)F)N1CCC(c2ccnc(C(F)(F)F)c2)CC1 was tested, and the EC50 [1] was < 1300 nM.
In the case of CCCCCc1cn(C[C@@]2(C)Cn3cc([N+](=O)[O-])nc3O2)nn1, the MIC [2] is reported as 8 µg/mL (≈ 25 µM), the MIC [3] is reported as 8 µg/mL (≈ 25 µM) and the MIC [4] is reported as 2 µg/mL (≈ 6.24 µM).
O=C(CCC(F)(F)F)N1CCC(c2cccc(Cl)n2)CC1 was tested, and the EC50 [1] was < 1300 nM.
For O=C(CCC(F)(F)F)N1CC(c2ccc(F)cc2F)C1, the EC50 [1] was < 75 nM.
In the case of CC1=NOC2(CCN(C(=O)CCC(F)(F)F)CC2)C1, the EC50 [1] is reported as < 140 nM.
For O=C(CCC(F)(F)F)N1CCC(c2ccnc(F)c2)CC1, the EC50 [1] was < 1300 nM.
COc1cccc(C(=O)Nc2nc3cc(C4=NN(C(C)=O)C(c5cccs5)C4)ccc3o2)c1 (centres undefined) was tested, and the MIC [5] was 12.5 µg/mL (≈ 27.1 µM) and the MIC [6] was 3.12 µg/mL (≈ 6.78 µM).
With O=C(CCC(F)(F)F)N1CC(c2cc(F)c(F)c(F)c2)C1 the EC50 [1] was < 75 nM.
For O=C(CCC(F)(F)F)N1CCC(c2cncc(Cl)n2)CC1, the EC50 [1] was < 1300 nM.
O=C(CCC(F)(F)F)N1CCC(F)(c2ccccn2)CC1 was tested, and the EC50 [1] was < 1300 nM.
With Cc1cc(C2CCN(C(=O)CCC(F)(F)F)CC2)ccn1 the EC50 [1] was < 1300 nM.
In the case of O=C(CCC(F)(F)F)N1CCC(c2ccc(F)nc2)CC1, the EC50 [1] is reported as < 1300 nM.
In the case of O=C(CCC(F)(F)F)N1CCC(c2cccc(F)n2)CC1, the EC50 [1] is reported as < 1300 nM.
With CC(C)COC1=NOC2(CCN(C(=O)CCC(F)(F)F)CC2)C1 the EC50 [1] was < 140 nM.
For C[C@]1(Cn2cc(COc3ccccn3)nn2)Cn2cc([N+](=O)[O-])nc2O1, the MIC [2] was 0.5 µg/mL (≈ 1.4 µM), the MIC [3] was 0.5 µg/mL (≈ 1.4 µM) and the MIC [4] was 0.25 µg/mL (≈ 0.7 µM).
For N#CC1=NOC2(CCN(C(=O)CCC(F)(F)F)CC2)C1, the EC50 [1] was < 140 nM.
O=C(CCC(F)(F)F)N1CCC(c2cncc(Cl)c2)CC1 was tested, and the EC50 [1] was < 1300 nM.
